The subject of assay [1] is Culex pipiens pallens. The assay is described as follows: Knockdown spray test on adult Culex pipiens pallens (Test Example 4). The following applies: topical, 0.25 h, active ingredient 0.1% w/v, 0.5 ml sprayed, within 15 minutes, read-out: knockdown rate of the test insects within 15 minutes. It is filed as in vivo. On the procedure: Ten adult Culex pipiens pallens were released in a polyethylene cup (bottom diameter: 10.6 cm), and the cup was covered with a 16-mesh nylon gauze. The polyethylene cup was placed on the bottom of a test chamber (bottom: 46 cm×46 cm, height: 70 cm). From a height of 30 cm above the upper surface of the polyethylene cup, 0.5 ml of the test drug solution was sprayed using a spray gun (a spraying pressure of 0.4 kg/cm^2). Immediately after spraying, the cup was taken out from the test chamber, and after 2 minutes, 5 minutes and 15 minutes, the number of knocked-down insects was counted to obtain a knockdown rate. The knockdown rate was calculated by the following equation.
(§1) Knockdown Rate (%)=(Number of Knocked-down Insects/Number of Tested Insects)×100

The subject of assay [2] is Blattella germanica. The assay is described as follows: Knockdown spray test on Blattella germanica, 0.1% w/v oil formulation (Test Example 2). The assay is classed as in vivo. The following applies: topical, 0.25 h, active ingredient 0.1% w/v, 1.5 ml sprayed, within 15 minutes, read-out: knockdown rate of the test insects within 15 minutes. On the procedure: Ten Blattella germanica (5 males and 5 females) were released in a test container (8.75 cm in diameter, 7.5 cm in height, and the bottom made of 16 mesh metallic wire) with the inner wall on which butter was applied, and the container was placed on the bottom of a test chamber (bottom: 46 cm×46 cm, height: 70 cm). From a height of 60 cm above the upper surface of the container, 1.5 ml of the test drug solution was sprayed using a spray gun (a spraying pressure of 0.42 kg/cm^2). Thirty seconds after spraying, the container was taken out from the test chamber, and after 2 minutes, 5 minutes and 15 minutes, the number of knocked-down insects was counted to obtain a knockdown rate. The knockdown rate was calculated by the following equation.
as §1

For `O=C(NCC1CCOC1)c1cc(COCc2cccc(F)c2)on1` (stereo not drawn) [(74)], the pest or weed control at 0.1 % strength in assay [1] and in assay [2] was at least 80% in each case.
Consider `O=C(NCC1CCOCC1)c1cc(COCc2cccc(F)c2)on1` [(75), N-(tetrahydropyran-4-ylmethyl)-5-(3-fluorobenzyloxymethyl)isoxazole-3-carboxamide], for which the pest or weed control at 0.1 % strength in assay [1] and in assay [2] was at least 80% in each case.
As to `O=C(NCC1CCOC1)c1cc(COCc2cccc(SC(F)(F)F)c2)on1` (stereo not drawn) [(80), N-(tetrahydrofuran-3-ylmethyl)-5-(3-trifluoromethylthiobenzyloxymethyl)isoxazole-3-carboxamide], the pest or weed control at 0.1 % strength in assay [1] and in assay [2] was at least 80% in each case.
Regarding `COc1cccc(COCc2cc(C(=O)NCC3CCOCC3)no2)c1` [(85), N-(tetrahydropyran-4-ylmethyl)-5-(3-methoxybenzyloxymethyl) isoxazole-3-carboxamide], the pest or weed control at 0.1 % strength in assay [1] and in assay [2] was at least 80% each time.
Turning to `CSc1cccc(COCc2cc(C(=O)NCC3CCOC3)no2)c1` (stereo not drawn) [(88), N-(tetrahydrofuran-3-ylmethyl)-5-(3-methylthiobenzyloxymethyl)isoxazole-3-carboxamide], the pest or weed control at 0.1 % strength in assay [1] and in assay [2] was at least 80% each time.
Turning to `O=C(NCC1CCOC1)c1cc(COCc2ccc(F)cc2)on1` (stereo not drawn) [(89), N-(tetrahydrofuran-3-ylmethyl)-5-(4-fluorobenzyloxymethyl)isoxazole-3-carboxamide], the pest or weed control at 0.1 % strength in assay [1] and in assay [2] was at least 80% in each case.
Take `COc1ccc(COCc2cc(C(=O)NCC3CCOC3)no2)cc1` (stereo not drawn) [(99), N-(tetrahydrofuran-3-ylmethyl)-5-(4-methoxybenzyloxymethyl) isoxazole-3-carboxamide]: the pest or weed control at 0.1 % strength in assay [1] and in assay [2] was at least 80% in each case.
For `O=C(NCC1CCOC1)c1cc(COCc2ccc(Cl)s2)on1` (stereo not drawn) [(109), N-(tetrahydrofuran-3-ylmethyl)-5-(2-chlorothiophen-5-ylmethoxymethyl)isoxazole-3-carboxamide], the pest or weed control at 0.1 % strength in assay [1] and in assay [2] was at least 80% throughout.
In the case of `O=C(NCC1CCOCC1)c1cc(COCc2ccc(Cl)s2)on1` [(110), N-(tetrahydropyran-4-ylmethyl)-5-(2-chlorothiophen-5-ylmethoxymethyl)isoxazole-3-carboxamide], the pest or weed control at 0.1 % strength in assay [1] and in assay [2] was at least 80% throughout.
Take `O=C(NCC1CCOC1)c1cc(COCc2cc3ccccc3o2)on1` (stereo not drawn) [(111)]: the pest or weed control at 0.1 % strength in assay [1] and in assay [2] was at least 80% throughout.
As for `O=C(NCC1CCOC1)c1cc(COCc2ccc(-c3ccccc3)o2)on1` (stereo not drawn) [(124), N-(tetrahydrofuran-3-ylmethyl)-5-(5-phenylfurfuryloxymethyl)isoxazole-3-carboxamide], the pest or weed control at 0.1 % strength in assay [1] and in assay [2] was at least 80% throughout.
As to `O=C(NCC1CCOC1)c1cc(COCCCc2ccccc2)on1` (stereo not drawn) [(133), N-(tetrahydrofuran-3-ylmethyl)-5-(3-phenylpropoxymethyl)isoxazole-3-carboxamide], the pest or weed control at 0.1 % strength in assay [1] and in assay [2] was at least 80% in each case.
In the case of `O=C(NCC1CCOCC1)c1cc(COCCCc2ccccc2)on1` [(134), N-(tetrahydropyran-4-ylmethyl)-5-(3-phenylpropoxymethyl)isoxazole-3-carboxamide], the pest or weed control at 0.1 % strength in assay [1] and in assay [2] was at least 80% throughout.
As for `O=Cc1c(C(=O)NCC2CCOC2)noc1COCc1ccccc1` (stereo not drawn) [(165), N-(tetrahydrofuran-3-ylmethyl)-(5-benzyloxymethyl-4-formyl) isoxazole-3-carboxamide], the pest or weed control at 0.1 % strength in assay [2] was at least 80%.
For the compound `CC(F)c1c(C(=O)NCC2CCOC2)noc1COCc1ccccc1` (stereo not drawn) [(172), N-(tetrahydrofuran-3-ylmethyl)-[5-benzyloxymethyl-4-(1-fluoroethyl)]isoxazole-3-carboxamide], the pest or weed control at 0.1 % strength in assay [1] and in assay [2] was at least 80% each time.
For `O=C(NCC1CCOC1)c1noc(COCc2ccccc2)c1CO` (stereo not drawn) [(174), N-(tetrahydrofuran-3-ylmethyl)-(5-benzyloxymethyl-4-hydroxymethyl)isoxazole-3-carboxamide], the pest or weed control at 0.1 % strength in assay [1] and in assay [2] was at least 80% each time.
For the compound `CC(O)c1c(C(=O)NCC2CCOC2)noc1COCc1ccccc1` (stereo not drawn) [(175), N-(tetrahydrofuran-3-ylmethyl)-[5-benzyloxymethyl-4-(1-hydroxyethyl)]isoxazole-3-carboxamide], the pest or weed control at 0.1 % strength in assay [1] and in assay [2] was at least 80% in each case.
With `O=C(NCC1CCOCC1)c1cc(COc2ccccc2Cl)on1` [(177), N-(tetrahydropyran-4-ylmethyl)-5-(2-chlorophenoxymethyl)isoxazole-3-carboxamide], the pest or weed control at 0.1 % strength in assay [1] and in assay [2] was at least 80% in each case.
Take `O=C(NCC1CCOC1)c1cc(COc2cccc(Cl)c2)on1` (stereo not drawn) [(178), N-(tetrahydrofuran-3-ylmethyl)-5-(3-chlorophenoxymethyl)isoxazole-3-carboxamide]: the pest or weed control at 0.1 % strength in assay [1] and in assay [2] was at least 80% throughout.
As to `O=C(NCC1CCOC1)c1cc(COc2ccc(Cl)cc2)on1` (stereo not drawn) [(180)], the pest or weed control at 0.1 % strength in assay [1] and in assay [2] was at least 80% in each case.
Turning to `O=C(NCC1CCOC1)c1cc(COc2ccc(F)cc2)on1` (stereo not drawn) [(184)], the pest or weed control at 0.1 % strength in assay [1] and in assay [2] was at least 80% throughout.
With `O=C(NCC1CCOC1)c1cc(COc2ccc(Br)cc2)on1` (stereo not drawn) [(186), N-(tetrahydrofuran-3-ylmethyl)-5-(4-bromophenoxymethyl)isoxazole-3-carboxamide], the pest or weed control at 0.1 % strength in assay [1] and in assay [2] was at least 80% each time.
In the case of `CC(O)c1c(C(=O)NCC2CCOC2)noc1COCc1ccc2ccccc2c1` (stereo not drawn) [(210), N-(tetrahydrofuran-3-ylmethyl)-1-hydroxyethyl-5-(2-naphthylmethoxymethyl)isoxazole-3-carboxamide], the pest or weed control at 0.1 % strength in assay [1] and in assay [2] was at least 80% in each case.
`O=C(NCC1CCOC1)c1noc(COCc2ccc3ccccc3c2)c1CF` (stereo not drawn) [(211), N-(tetrahydrofuran-3-ylmethyl)-4-fluoromethyl-5-(2-naphthylmethoxymethyl)isoxazole-3-carboxamide]: the pest or weed control at 0.1 % strength in assay [1] and in assay [2] was at least 80% throughout.
Take `Cc1c(C(=O)NCC2CCOC2)noc1COCc1cccc(F)c1` (stereo not drawn) [(217), N-(tetrahydrofuran-3-ylmethyl)-5-(3-fluorobenzyloxymethyl)-4-methylisoxazole-3-carboxamide]: the pest or weed control at 0.1 % strength in assay [1] and in assay [2] was at least 80% throughout.
On to `Cc1c(F)c(F)c(COCc2cc(C(=O)NCC3CCOC3)no2)c(F)c1F` (stereo not drawn) [(273), N-(tetrahydrofuran-3-ylmethyl)-5-(4-methyl-2,3,5,6-tetrafluorobenzyloxymethyl)isoxazole-3-carboxamide], for which the pest or weed control at 0.1 % strength in assay [1] was at least 80%.
Consider `O=C(NCC1CCOC1)c1noc(COCc2ccc3ccccc3c2)c1I` (stereo not drawn) [(295), N-(tetrahydrofuran-3-ylmethyl)-5-(2-naphthylmethoxymethyl)-4-iodoisoxazole-3-carboxamide], for which the pest or weed control at 0.1 % strength in assay [1] is at least 80%.
Same read-out and setting: the value for `O=C(NCC1CCOC1)c1noc(COCc2ccccc2F)c1Br` (stereo not drawn) [(296), N-(tetrahydrofuran-3-ylmethyl)-5-(2-fluorobenzyloxymethyl)-4-bromoisoxazole-3-carboxamide] was at least 80%.
Still for that read-out and setting: the value for `O=C(NCC1CCOC1)c1noc(COCc2ccccc2F)c1I` (stereo not drawn) [(297), N-(tetrahydrofuran-3-ylmethyl)-5-(2-fluorobenzyloxymethyl)-4-iodoisoxazole-3-carboxamide] was at least 80%; that for `O=C(NCC1CCOC1)c1cc(Cc2cc(Cl)cc(Cl)c2)on1` (stereo not drawn) [(307), N-(tetrahydrofuran-3-ylmethyl)-5-(3,5-dichlorobenzyl)isoxazole-3-carboxamide] was at least 80%.
The same measure, in the same setting: the figure for `O=C(NCC1CCOC1)c1cc(Cc2ccc(C(F)(F)F)cc2)on1` (stereo not drawn) [(316), N-(tetrahydrofuran-3-ylmethyl)-5-(4-trifluoromethylbenzyl)isoxazole-3-carboxamide] is at least 80%; for `O=C(NCC1CCOC1)c1cc(Cc2ccccc2F)on1` (stereo not drawn) [(320), N-(tetrahydrofuran-3-ylmethyl)-5-(2-fluorobenzyl)isoxazole-3-carboxamide] it is at least 80%; for `O=C(NCC1CCOC1)c1cc(Cc2ccccc2Cl)on1` (stereo not drawn) [(323), N-(tetrahydrofuran-3-ylmethyl)-5-(2-chlorobenzyl)isoxazole-3-carboxamide] it is at least 80%.

For the origin of these results see patent US20150344466A1 (SUMITOMO CHEMICAL COMPANY, LIMITED, priority 2013, published 2015).
